Laboratory results: ChEMBL document CHEMBL1145554, “First CoMFA characterization of vesamicol analogs as ligands for the vesicular acetylcholine transporter” (J Med Chem, 2008)

experiment: Displacement of [3H]vesamicol from VAChT receptor in torpedo electrical organ synaptic vesicle

Which Ki does the source give for O[C@@H]1C[C@H]2CCCC[C@@H]2C[C@H]1N1CCC(c2ccccc2)CC1 here?
The Ki was 0.009 nM.

Which Ki does the source give for O[C@@H]1CCCC[C@H]1N1CCC(c2ccccc2)CC1 (relative stereo) [VESAMICOL] here?
Its Ki is 7.6 nM.

With O=C(CN1C2CCC1CC(c1ccccc1)C2)c1ccc(F)cc1 (stereo not drawn) as the molecule, how does the Ki read?
The Ki was 3400 nM.
